This test has as its target Cath X (Homo sapiens, UniProt Q9UBR2). Put plainly: in vitro activity assay (fluorescence, substrate cleavage) with Cath X. Type of test: biochemical. The conditions noted are these: measurement performed at pH 5.5. On the procedure: […] The substrates were solved in DMSO and added to enzyme solution with a final concentration of 50 μM.
Fluorescence was measured with an Tecan SAFIRE II spectrometer (excitation wavelength: 336 nm; emission wavelength: 490 nm; excitation band: 10.0 nm; emission band: 10.0 nm; amplification (manual): 90).

The structures appear in SMILES notation.

These results are taken from patent US8771644B2, “Imaging probes” (Sanofi, priority 2007, dated 2014).

Chain of Cath X (Q9UBR2 62-303): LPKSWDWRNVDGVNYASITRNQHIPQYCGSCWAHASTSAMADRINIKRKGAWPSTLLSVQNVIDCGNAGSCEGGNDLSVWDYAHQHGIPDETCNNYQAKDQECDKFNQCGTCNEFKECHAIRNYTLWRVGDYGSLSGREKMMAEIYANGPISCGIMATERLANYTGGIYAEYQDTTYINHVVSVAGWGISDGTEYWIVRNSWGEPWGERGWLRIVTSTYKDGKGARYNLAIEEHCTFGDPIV

A word on the Vmax: it is the rate approached at saturating substrate. Regarding `CN(C)c1ccc2c(c1)Oc1cc(N(C)C)ccc1C21OC(=O)c2cc(C(=O)NCC[C@H](NC(=O)[C@H](CC3CCCCC3)NC(=O)N3CCOCC3)C(=O)NCCNC(=O)c3ccc(-c4c5ccc(=O)cc-5oc5cc(O)ccc45)c(C(=O)O)c3)ccc21` [Example 10], the Kcat worked out at 287.4 s⁻¹ and the maximum rate (Vmax) amounted to 7997 nmol/s.
